Assay [1] deals with T1, SIRT3 (Homo sapiens, UniProt Q9NTG7).
T1 sequence (Q9NTG7 1-399): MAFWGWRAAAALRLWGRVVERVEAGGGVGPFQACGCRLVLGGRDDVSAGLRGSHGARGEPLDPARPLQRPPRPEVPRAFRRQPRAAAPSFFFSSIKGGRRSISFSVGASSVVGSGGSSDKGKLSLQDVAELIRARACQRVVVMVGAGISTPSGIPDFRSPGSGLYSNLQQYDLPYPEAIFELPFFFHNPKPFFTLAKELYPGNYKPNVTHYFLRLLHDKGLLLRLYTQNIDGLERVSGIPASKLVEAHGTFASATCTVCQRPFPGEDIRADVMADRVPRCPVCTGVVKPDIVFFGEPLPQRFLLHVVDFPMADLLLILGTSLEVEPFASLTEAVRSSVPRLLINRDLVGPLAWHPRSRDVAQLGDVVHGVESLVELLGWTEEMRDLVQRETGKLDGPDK
Briefly: Fluor de Lys SIRT3 assay. As to conditions: for inhibition at 10 µM: read-out: % inhibition at 10 μM SIRT3; for inhibition at 50 µM: read-out: % inhibition at 50 μM SIRT3.

In assay [2] the target is T2, SIRT1 (Homo sapiens, UniProt Q96EB6).
T2 sequence (Q96EB6 1-747): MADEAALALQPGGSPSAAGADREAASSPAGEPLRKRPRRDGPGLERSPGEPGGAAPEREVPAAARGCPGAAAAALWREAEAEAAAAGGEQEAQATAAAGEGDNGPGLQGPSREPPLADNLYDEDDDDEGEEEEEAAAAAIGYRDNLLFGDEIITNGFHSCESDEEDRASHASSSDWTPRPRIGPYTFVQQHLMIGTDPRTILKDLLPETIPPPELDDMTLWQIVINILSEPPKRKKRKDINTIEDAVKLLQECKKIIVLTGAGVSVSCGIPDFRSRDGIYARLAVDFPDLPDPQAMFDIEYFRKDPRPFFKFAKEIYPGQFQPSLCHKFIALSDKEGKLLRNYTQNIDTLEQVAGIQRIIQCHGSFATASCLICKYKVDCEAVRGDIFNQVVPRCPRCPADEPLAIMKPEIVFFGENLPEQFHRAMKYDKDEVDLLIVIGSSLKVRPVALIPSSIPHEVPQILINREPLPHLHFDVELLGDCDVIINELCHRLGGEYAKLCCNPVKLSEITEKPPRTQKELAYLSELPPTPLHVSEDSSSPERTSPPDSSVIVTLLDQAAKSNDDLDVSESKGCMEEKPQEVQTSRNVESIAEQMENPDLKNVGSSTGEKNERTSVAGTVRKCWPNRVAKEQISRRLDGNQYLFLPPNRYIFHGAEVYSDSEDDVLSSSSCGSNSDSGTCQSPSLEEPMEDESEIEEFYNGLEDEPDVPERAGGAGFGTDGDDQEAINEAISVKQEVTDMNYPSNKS
Briefly: Fluor de Lys SIRT1 assay. As to conditions: for inhibition at 10 µM: read-out: % inhibition at 10 μM SIRT1; for inhibition at 50 µM: read-out: % inhibition at 50 μM SIRT1.

Assay [3] has as its target T2, SIRT1. On the set-up: purchased Biomol / Enzo Life Sciences (Fluor de Lys kit AK-555) BML-SE239-0100. As to conditions: cited from earlier work.
Assay [4] concerns the target T1, SIRT3. On the set-up: purchased Biomol / Enzo Life Sciences (Fluor de Lys kit AK-557) BML-SE270-0500. As to conditions: cited from earlier work.
For another assay, the system named is MDA-MB-231 cells. In words: Cell growth assay (AlamarBlue), MDA-MB-231. As to conditions: Homo sapiens, 72 h of treatment. The class given is cell-based, human. (In general: The colour change of resazurin is a common sign of viable cells or microbes.)
The target in another assay is T3, SIRT2 (Homo sapiens, UniProt Q8IXJ6).
T3 sequence (Q8IXJ6 1-389): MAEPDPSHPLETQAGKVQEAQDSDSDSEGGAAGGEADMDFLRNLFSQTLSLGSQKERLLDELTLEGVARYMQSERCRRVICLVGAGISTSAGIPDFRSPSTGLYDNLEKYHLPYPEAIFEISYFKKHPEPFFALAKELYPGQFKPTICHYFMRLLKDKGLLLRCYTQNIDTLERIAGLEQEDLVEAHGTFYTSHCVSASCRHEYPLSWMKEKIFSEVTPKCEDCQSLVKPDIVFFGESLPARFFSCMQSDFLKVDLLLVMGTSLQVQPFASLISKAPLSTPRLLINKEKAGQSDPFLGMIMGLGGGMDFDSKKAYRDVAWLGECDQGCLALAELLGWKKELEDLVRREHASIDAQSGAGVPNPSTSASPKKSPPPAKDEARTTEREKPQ
Briefly: Fluor de Lys SIRT2 assay. As to conditions: for inhibition at 1 µM: read-out: % inhibition at 1 μM SIRT2; for inhibition at 10 µM: read-out: % inhibition at 10 μM SIRT2.

For a further assay, the target named is T4, SIRT5 (Homo sapiens, UniProt Q9NXA8).
T4 sequence (Q9NXA8 37-310): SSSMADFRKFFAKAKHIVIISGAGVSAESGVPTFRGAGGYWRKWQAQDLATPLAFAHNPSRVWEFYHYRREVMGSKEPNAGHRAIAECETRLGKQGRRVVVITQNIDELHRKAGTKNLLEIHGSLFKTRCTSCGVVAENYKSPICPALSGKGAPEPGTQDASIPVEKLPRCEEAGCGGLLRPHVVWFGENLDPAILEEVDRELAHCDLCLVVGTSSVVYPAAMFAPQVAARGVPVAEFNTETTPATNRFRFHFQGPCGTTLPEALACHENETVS
In words: Fluor de Lys SIRT5 assay. As to conditions: for inhibition at 10 µM: read-out: % inhibition at 10 μM SIRT5; for inhibition at 50 µM: read-out: % inhibition at 50 μM SIRT5.

As for `Cc1cc(C)nc(SCC(=O)Nc2ncc(Cc3cccc4ccccc34)s2)n1` [Compound 5, SirReal2, reference compound], the inhibition – broadly, the drop in the measured response relative to a control, in per cent – at 10 µM was found to be 5 ± 0.6% at SIRT3 [1], 3 ± 0.65% on SIRT1 [2], 98 ± 3.1% on SIRT2 and 3 ± 1.5% on SIRT5. Also, the inhibition at 50 µM is 1% on SIRT3 [1], 6% at SIRT1 [2] and 1% at SIRT5. In addition, the IC50 on SIRT1 [3] and at SIRT3 [4] was more than 100 µM each time. For the same molecule, the GI50 (usually the concentration at which growth is held to half of that of the control) in the assay on MDA-MB-231 cells was determined as 9.46 µM. Besides, the inhibition at 1 µM at SIRT2 is 80 ± 1.5%.

As to `NC(=O)c1ccccc1Nc1cccc(OCCc2ccccc2)c1` [Compound 6, 3′-phenethyloxy-2-anilinobenzamide, reference compound], the inhibition at 10 µM on SIRT3 [1] was 1 ± 2.6%; at SIRT1 [2], 3 ± 3.6%; at SIRT2, 90 ± 1.5%; at SIRT5, 10 ± 2.6%. The inhibition at 50 µM at SIRT3 [1] stood at 12%; at SIRT1 [2], 14%; at SIRT5, 12%. The IC50 (usually the concentration that inhibits the measured activity by half) is more than 300 µM at SIRT1 [3], more than 300 µM on SIRT3 [4] and 1.74 ± 0.26 µM at SIRT2. The GI50 with MDA-MB-231 cells (MDA-MB-231, 72 h) is more than 30 µM. In addition, on SIRT2, the inhibition at 1 µM was determined as 32 ± 4.1%.

The values above are taken from article PMC5628579, “Potent mechanism-based sirtuin-2-selective inhibition by an in situ-generated occupant of the substrate-binding site, “selectivity pocket” and NAD^+-binding site” (Chemical Science, 2017).
